Data reported in BigSolDB 2.1.

C[C@@H]1CC[C@@]2(OC1)O[C@H]1C[C@H]3[C@@H]4CC=C5C[C@@H](O)CC[C@]5(C)[C@H]4CC[C@]3(C)[C@H]1[C@@H]2C
solubility (mole fraction)
Conditions	in n-heptanol	in n-hexanol
300.15 K	–	0.00806
302.26 K	0.0088	–
303.35 K	–	0.00875
305.45 K	0.00959	0.00905
307.65 K	0.0101	–
308.15 K	–	0.00957
309.9 K	0.0106	0.0101
312.12 K	0.0112	0.0107
312.46 K	0.0119	0.0113
313.79 K	–	0.0119
314.11 K	0.0126	–
315.8 K	0.0133	0.0126
317.35 K	–	0.0132
317.75 K	0.014	–
319.26 K	–	0.0139
320.05 K	0.0147	–
320.77 K	–	0.0147
321.07 K	0.0155	–
321.95 K	–	0.0154
323.22 K	0.0163	–
323.95 K	–	0.0161
324.65 K	0.0171	–
325.05 K	–	0.0167
325.35 K	0.0179	–
326.2 K	–	0.0174
327.45 K	0.0188	–
327.95 K	–	0.0181
328.51 K	0.0196	–
329.6 K	0.0202	0.0188
